The text below walks through data of article doi:10.1101/2023.04.05.535784v2 (bioRxiv, 2023).

One series concerns THP-1 cells. The following applies: cited from earlier work.
The test system of series [1] is thrombus formation in the lung. The following applies: mice, oral, three consecutive days.

Positions of bridges follow the written chain, without caps; N, C: chain ends. Residues, ends and D or L forms follow the SMILES beside them.

`CC(C)C[C@@H]1NC(=O)[C@@H]2CSSC[C@@H]3NC(=O)[C@H](Cc4c[nH]c5ccccc45)NC(=O)[C@H](C)NC(=O)CNC(=O)CNC(=O)[C@H](CO)NC(=O)[C@H](CCCCN)NC(=O)[C@@H](N)CSSC[C@@H]4NC(=O)[C@H](CSSC[C@H](NC(=O)[C@H](Cc5ccccc5)NC(=O)CNC(=O)[C@H](C(C)C)NC1=O)C(=O)N[C@@H](Cc1ccc(O)cc1)C(=O)NCC(=O)N[C@@H]([C@@H](C)O)C(=O)NCC(=O)N[C@H](C(=O)O)CSSC[C@H](NC(=O)[C@H](CC(N)=O)NC(=O)CNC4=O)C(=O)NCC(=O)N2)NC(=O)CNC(=O)[C@H](Cc1c[nH]cn1)NC(=O)[C@@H]1CCCN1C(=O)[C@H](CC(=O)O)NC(=O)[C@H](Cc1ccccc1)NC(=O)CNC3=O` [ginsentide TP1] (H-CKSGGAWCGFDPHGCCGNCGCLVGFCYGTGC-OH; disulfide 1-16, 8-21, 15-26, 19-31): the “increase in IL-6, IL-8, IL-10, and TNFα” value in the series on THP-1 cells is recorded as “no observable increase”. In addition, the “thrombus formation in the lung compared to control, 30 mg/kg” value in series [1] is recorded as “significantly reduced”.
